In patent US10844018B2, “Pyridoxine derivative for treatment of epilepsy” (AO “TATKHIMFARMPREPARATY”, priority 2017, dated 2020):
Entries after “also recorded” stand apart in the source; their conditions may differ. Where two headings read alike, the source gives them in different places.

Assays:
[1] = system: penicillin rat epilepsy model (high-amplitude electric discharges, HAED); experiment: Penicillin model of epilepsy: effect on the electrical activity of the brain; assay type: in vivo
Experimental: Experiments were carried out on male Wistar rats with a body weight of 180-250 g. Under isoflurane anesthesia (1.5%), surgical preparation for the experiment is performed. Urethane ([…]) is used for anesthesia during the experiment. Next, the animal is fixed in a stereotactic installation. 2×2 mm holes are drilled in the skulls of animals over symmetrical areas of the sensorimotor cortex of the brain and a 16-channel silicon-based probe (Neuronexus) is installed with a step of 100 μm between the recording electrodes to divert electrical activity from these areas. A silver chloride electrode, which serves as a combined ground electrode and a reference electrode, is introduced into the cerebellum or the visual cortex to a depth of 2-3 mm. To create a focus of epileptic activity in parallel to the somatosensory zones, 2×2 mm holes are drilled in the area of the visual cortex, into which 10 μl of a solution of sodium salt of benzylpenicillin are applied at a concentration of 40,000 IU/ml. […] The amplitude-frequency characteristics of epileptiform activity are evaluated. […] For statistical processing of experimental data, statistical programs Origin 8.5 and IBM SPSS Statistics are used. The significance of differences between populations is evaluated by the Mann-Whitney U-test. […] Their presence, frequency and amplitude are characteristic indicators of brain epileptic activity.

[2] = system: corazol rat epilepsy model (convulsions caused by corazol); experiment: Corazol model of epilepsy: development of seizures; assay type: in vivo; conditions: rats
Experimental: Experiments were carried out on male Wistar rats with a body weight of 180-250 g.
Corazol at a dose of 80 mg/kg is administered subcutaneously in the cervical area of the back.
The intensity of the development of a convulsive seizure was studied on a 6-point scale: • 0—lack of convulsive activity; • 1—hyperkinesia; • 2—trembling, twitching, excessive grooming, stereotypical movements; • 3—clonic convulsions of the front legs with lifting on the hind legs; • 4—pronounced tonic-clonic convulsions, the fall of the animal to the side, the presence of a phase of tonic extensia; • 5—repeated tonic-clonic convulsions, loss of posture; • 6—complete tonic attack with apnea, death of the animal.
To study the effect of the claimed compound 1 on the development of convulsions caused by corazol, compound 1 is dissolved in physiological saline and administered as follows: • at doses of 25 mg/kg, 100 mg/kg intraperitoneally (ip) 30 minutes before the induction of convulsions with corazol; • at doses of 100 mg/kg, 200 mg/kg, 250 mg/kg intragastrically 1 hour before the induction of convulsions with corazol.
The development of convulsive disorder is assessed by the following indicators: • time before the onset of seizures (min); • duration of seizures (sec.); • intensity of seizures on a 6-point scale; • number of animals with repeated convulsions; • number of dead animals in the group.
For statistical processing of experimental data, statistical programs Origin 8.5 and IBM SPSS Statistics are used.
The significance of differences between populations is evaluated by the Mann-Whitney U-test.

[3] = Acute toxicity in mice with intraperitoneal administration (compound 1); conditions: both sexes, CD-1 (ICR), mouse, in vivo, ip, printed 'in rats', study in CD-1 mice
Experimental: The study was performed on mice of the CD-1 (ICR) line (6-8 weeks, weight not less than 18 g) of both sexes. A single intraperitoneal injection of compound 1 was used at doses of 1000 mg/kg and 2000 mg/kg in a volume of 1 ml per 40 g of mouse body mass using an insulin syringe. The volume of administration was calculated individually for each animal, based on the body mass recorded immediately before the introduction of the substance.
To prepare a dose of 2000 mg/kg for administration to mice, a portion of 800 mg of compound 1 in a polystyrene boat on a Vibra scale (Shinko Denshi, Japan) was weighed, transferred to a volumetric flask of accuracy class A per 10 ml of volume, dissolved in physiological saline and adjusted to the mark. The solution was filtered with 0.22 μm syringe nozzles (Jet Biofil). […]
(§1) Animals were clinically examined individually after administration for 30 minutes, then at least once per hour for 4 hours, then daily once a day for 14 days. Body mass was recorded immediately before the administration of the preparation to calculate the volume of administration, then once every two days.

[4] = Acute toxicity in mice with oral administration (compound 1); conditions: female, CD-1 (ICR), mouse, in vivo, 5000 mg/kg, printed 'in rats', study in CD-1 mice
Experimental: The study was performed on mice of the CD-1 (ICR) line (6-8 weeks, weight not less than 18 g, females). Two-fold intragastric (oral) administration of compound 1 in a volume of not more than 0.5 ml/30 g of body weight of the mouse using a gastric tube was used.
The introduction was carried out to animals deprived of food (for a period of not less than 8 hours) with free access to water. The volume of administration was calculated individually for each animal, based on the body mass recorded immediately before the introduction of the substance. Access to water and feed was renewed one hour after administration.
To prepare a dose of 5000 mg/kg for administration to mice, a portion of 1.5 g of compound 1 in a polystyrene boat on a Vibra scale (Shinko Denshi, Japan) was weighed, transferred to a volumetric flask of accuracy class A per 10 ml of volume, dissolved in distilled water and adjusted to the mark. Due to the insufficient solubility of compound 1, another 10 ml of distilled water is added to the resulting volume of the solution.
as §1

rats [5] = conditions: oral administration; cited from earlier work
mice [6] = conditions: cited from earlier work
mice [7] = conditions: intraperitoneal administration; cited from earlier work
mice [8] = conditions: intravenous injection; cited from earlier work
rats [9] = conditions: intravenous injection; cited from earlier work

Cc1nc(CS(=O)(=O)O)c(CO)c(CO)c1O [compound 1, (5-hydroxy-3,4-bis (hydroxymethyl)-6-methylpyridin-2-yl) methanesulfonic acid]
antiepileptic effect compared with sodium valproate ([1]; compound 1 25-100 mg/kg against sodium valproate 600 mg/kg, ip, penicillin model): 6-24 times
suppression of HAED (epileptic electrical activity of the brain) ([1]; compound 1 at 25, 50, 100 mg/kg ip, given 30 min after penicillin, 60 minutes after administration, rats): completely suppressing HAED; also recorded: completely suppresses the epileptic electrical activity of the brain
amplitude and frequency of HAED ([1]; compound 1 at 25, 50, 100 mg/kg ip, rats, penicillin model): decrease in the amplitude and frequency of HAED
prevention / reduction of development of a seizure ([2]; 250 mg/kg oral administration, corazol model): best results in reducing the development of a seizure; also recorded: complete prevention of seizures in some cases
intensity and duration of seizures ([2]; 25 and 100 mg/kg intraperitoneally and 100 and 200 mg/kg orally, corazol model): decrease in the intensity and duration of seizures
effect on development of a seizure relative to 250 mg/kg oral ([2]; 100 and 200 mg/kg oral, corazol model): slightly less pronounced
deaths ([2]; all dosages, corazol model): completely prevents deaths
likelihood of recurrence of seizures ([2]; all dosages, corazol model): greatly reduces the likelihood of recurrence of seizures
duration and intensity of seizures ([2]; corazol 80 mg/kg sc, oral and intravenous (so in the source) ways of administration, all doses): dose-dependent decrease in the duration and intensity of seizures
LD50 at 14 days [3]: > 2000 mg/kg
LD50 at 14 days [4]: > 5000 mg/kg

CCC1(c2ccccc2)C(=O)NC(=O)NC1=O [phenobarbital]
LD50 (rats [5]): 163 mg/kg

CC[C@@H](C(N)=O)N1CCCC1=O [levetiracetam]
LD50 (mice [6]; mice, oral administration): > 5000 mg/kg

CCC1(C)CC(=O)NC1=O (stereo not drawn) [ethosuximide]
LD50 (mice [6]; mice, oral administration): 1530 mg/kg

Nc1nnc(-c2cccc(Cl)c2Cl)c(N)n1 [lamotrigine]
LD50 (mice [6]; mouse, in vivo, po): 269 mg/kg

CC1(C)O[C@@H]2[C@@H](CO[C@@]3(COS(N)(=O)=O)OC(C)(C)O[C@@H]23)O1 [topiramate]
LD50 (rats [5]): 3570 mg/kg

NC(=O)N1c2ccccc2C=Cc2ccccc21 [carbamazepine]
LD50 (mice [7]): 114 mg/kg
LD50 (mice [6]; mice, oral administration): 529 mg/kg

O=C1N=C([O-])NC1(c1ccccc1)c1ccccc1.[Na+] [sodium phenytoin]
LD50 (mice [6]; mice, oral administration): 165 mg/kg

NS(=O)(=O)Cc1noc2ccccc12 [zonisamide]
LD50 (mice [7]): 699 mg/kg
LD50 (mice [6]; mice, oral administration): 1829 mg/kg

NCC1(CC(=O)O)CCCCC1 [gabapentinum]
LD50 (mice [6]; mice, oral administration): > 5000 mg/kg
LD50 (rats [5]): > 5000 mg/kg
LD50 (mice [8]): 1000 to 2000 mg/kg
LD50 (rats [9]): > 300 mg/kg

CCCC(CCC)C(=O)[O-].[Na+] [sodium valproate]
LD50 (mice [7]): 470 mg/kg
LD50 (mice [6]; mice, oral administration): 977 mg/kg
